Tested on: HEK293 cells
Test: Preliminary screening as DNA vectors, GFP transfection of HEK293 cells
Format: cell-based
Details: amino lipid/DOPE liposome with 75 ng plasmid DNA (psin-EGFP-IRES-Puro); number of GFP-expressing cells divided by total nuclei (Hoechst)
Protocol: Cell line: HEK293 cells (ATCC CRL-1573™)
Medium: DMEM supplemented with 10% fetal bovine serum (Invitrogen)
Mode of screening: cell transfection on 96-well plates
Detection (readout): percentage of the number of GFP fluorescent cells relative to the total number of cells (the total number of cells was measured using nucleus dye Hoechst—see FIG. 2). Lipofectamine2000 (Invitrogen) was used as positive control, according to the manufacturer's instructions.
Method: an 8-channel pipette was used for sample addition. The contents shown were for a single well of a 96-well flat plate.
1. The compound (0.01 mmol) prepared in Example 1 was dissolved in 1 mL of anhydrous ethanol. After ultrasonically dissolved, 10 μL of the resultant amino lipid solution in ethanol was taken and mixed with 5 μL of DOPE solution in ethanol (0.01 m), and then to the obtained mixture was added 35 μL of 0.2M sodium acetate buffer (pH 5.6), and 50 μL of liposome solution was prepared by vortex at a constant rotating speed for 30 s. 4 μL was taken from the 50 μL liposome solution and added to 46 μL of 0.02M sodium acetate buffer (pH 5.6), and the final liposome solution was formed by vortex at a constant rotating speed for 30 s. 5 μL was taken from the final liposome solution and mixed with 75 ng plasmid DNA (psin-EGFP-IRES-Puro, Clontech) dissolved in 5 μL of 0.02 M sodium acetate buffer, and was allowed to stay at room temperature for 30 min to form a lipid/DNA transfection complex.
2. 10 μL of the lipid/DNA transfection complex was incubated at room temperature for 30 min, followed by addition of 90 μL of fresh resuspended cells (3-5×10^4 cells) and mixing with a pipette. 100 μL of cells+lipid/DNA complex was transferred to separate wells of a 96-well culture plate immediately, and placed in an incubator containing 5% CO2 at 37° C.
3. Hoechst33258 (Invitrogen) was added at a final concentration of 0.2 μg/mL to the cells 20 to 24 hours after initial cell transfection, and cultured in darkness at 37° C. for 15 min. Afterwards, the cells were washed once with a PBS solution, and then added with medium for culture for 20 to 24 h.
4. The cells were placed in a high-throughput confocal microscope (Molecular Devices ImageXpress), and four visual fields of the image of the cells were captured for each well, and images at three laser wavelengths were captured for each sample: bright field images of cells (FIG. 2(a) and FIG. 2(b)), Hoechst-staining images showing total nuclei (FIG. 2(c) and FIG. 2(d)) and GFP images showing success in transfection with the plasmid DNA and the expression of GFP (FIG. 2(e) and FIG. 2(f)). MetaXpress software was used to separately count the cells in the Hoechst-staining images and GFP images, and then the number of cells expressing GFP was divided by the total number of nuclei to give the absolute cell transfection efficiency. The absolute transfection efficiency was calculated as follows: […]

SMILES	Absolute DNA transfection efficiency in HEK293 cells
CCCCCCCCCCSc1nc(NCCN(C)C)nc(SCCCCCC)n1 [S6S10 D1]	3.2%
CCCCCCCCCCSc1nc(NCCN2CCOCC2)nc(SCCCCCC)n1 [S6S10 D2]	8.3%
CCCCCCCCCCSc1nc(NCCN2CCCC2)nc(SCCCCCC)n1 [S6S10 D3]	4.4%
CCCCCCCCCCSc1nc(NCCN2CCCCC2)nc(SCCCCCC)n1 [S6S10 D4]	4.5%
CCCCCCCCCCSc1nc(NCCN2CCN(C)CC2)nc(SCCCCCC)n1 [S6S10 D5]	12.4%
CCCCCCCCCCSc1nc(NCCCN(C)C)nc(SCCCCCC)n1 [S6S10 D6]	20.9%
CCCCCCCCCCSc1nc(NCCN(CC)CC)nc(SCCCCCC)n1 [S6S10 D7]	7.7%
CCCCCCCCCCSc1nc(NCCCN2CCOCC2)nc(SCCCCCC)n1 [S6S10 D8]	0.0%
CCCCCCCCCCSc1nc(NCCCN2CCN(C)CC2)nc(SCCCCCC)n1 [S6S10 D9]	7.9%
CCCCCCCCCCSc1nc(NCC2CCN(C)CC2)nc(SCCCCCC)n1 [S6S10 D10]	14.9%
CCCCCCCCCCCSc1nc(NCCN(C)C)nc(SCCCCCC)n1 [S6S11 D1]	6.0%
CCCCCCCCCCCSc1nc(NCCN2CCOCC2)nc(SCCCCCC)n1 [S6S11 D2]	18.7%
CCCCCCCCCCCSc1nc(NCCN2CCCC2)nc(SCCCCCC)n1 [S6S11 D3]	12.4%
CCCCCCCCCCCSc1nc(NCCN2CCCCC2)nc(SCCCCCC)n1 [S6S11 D4]	6.2%
CCCCCCCCCCCSc1nc(NCCN2CCN(C)CC2)nc(SCCCCCC)n1 [S6S11 D5]	32.7%
CCCCCCCCCCCSc1nc(NCCCN(C)C)nc(SCCCCCC)n1 [S6S11 D6]	32.1%
CCCCCCCCCCCSc1nc(NCCN(CC)CC)nc(SCCCCCC)n1 [S6S11 D7]	10.1%
CCCCCCCCCCCSc1nc(NCCCN2CCOCC2)nc(SCCCCCC)n1 [S6S11 D8]	4.5%
CCCCCCCCCCCSc1nc(NCCCN2CCN(C)CC2)nc(SCCCCCC)n1 [S6S11 D9]	16.8%

SMILES	Absolute DNA transfection efficiency in HEK293 cells
CCCCCCCCCCCSc1nc(NCC2CCN(C)CC2)nc(SCCCCCC)n1 [S6S11 D10]	38.1%
CCCCCCCCCCCCSc1nc(NCCN(C)C)nc(SCCCCCC)n1 [S6S12 D1]	6.3%
CCCCCCCCCCCCSc1nc(NCCN2CCOCC2)nc(SCCCCCC)n1 [S6S12 D2]	5.0%
CCCCCCCCCCCCSc1nc(NCCN2CCCC2)nc(SCCCCCC)n1 [S6S12 D3]	4.3%
CCCCCCCCCCCCSc1nc(NCCN2CCCCC2)nc(SCCCCCC)n1 [S6S12 D4]	3.0%
CCCCCCCCCCCCSc1nc(NCCN2CCN(C)CC2)nc(SCCCCCC)n1 [S6S12 D5]	28.8%
CCCCCCCCCCCCSc1nc(NCCCN(C)C)nc(SCCCCCC)n1 [S6S12 D6]	13.6%
CCCCCCCCCCCCSc1nc(NCCN(CC)CC)nc(SCCCCCC)n1 [S6S12 D7]	6.6%
CCCCCCCCCCCCSc1nc(NCCCN2CCOCC2)nc(SCCCCCC)n1 [S6S12 D8]	7.5%
CCCCCCCCCCCCSc1nc(NCCCN2CCN(C)CC2)nc(SCCCCCC)n1 [S6S12 D9]	9.4%
CCCCCCCCCCCCSc1nc(NCC2CCN(C)CC2)nc(SCCCCCC)n1 [S6S12 D10]	24.4%
CCCCCCCCCCCCCCSc1nc(NCCN(C)C)nc(SCCCCCC)n1 [S6S14 D1]	8.3%
CCCCCCCCCCCCCCSc1nc(NCCN2CCOCC2)nc(SCCCCCC)n1 [S6S14 D2]	11.1%
CCCCCCCCCCCCCCSc1nc(NCCN2CCCC2)nc(SCCCCCC)n1 [S6S14 D3]	9.2%
CCCCCCCCCCCCCCSc1nc(NCCN2CCCCC2)nc(SCCCCCC)n1 [S6S14 D4]	12.0%
CCCCCCCCCCCCCCSc1nc(NCCN2CCN(C)CC2)nc(SCCCCCC)n1 [S6S14 D5]	18.6%
CCCCCCCCCCCCCCSc1nc(NCCCN(C)C)nc(SCCCCCC)n1 [S6S14 D6]	21.9%
CCCCCCCCCCCCCCSc1nc(NCCN(CC)CC)nc(SCCCCCC)n1 [S6S14 D7]	4.7%
CCCCCCCCCCCCCCSc1nc(NCCCN2CCOCC2)nc(SCCCCCC)n1 [S6S14 D8]	2.3%

SMILES	Absolute DNA transfection efficiency in HEK293 cells
CCCCCCCCCCCCCCSc1nc(NCCCN2CCN(C)CC2)nc(SCCCCCC)n1 [S6S14 D9]	4.1%
CCCCCCCCCCCCCCSc1nc(NCC2CCN(C)CC2)nc(SCCCCCC)n1 [S6S14 D10]	53.3%
CCCCCCCCCCCCCCCSc1nc(NCCN(C)C)nc(SCCCCCC)n1 [S6S15 D1]	5.5%
CCCCCCCCCCCCCCCSc1nc(NCCN2CCOCC2)nc(SCCCCCC)n1 [S6S15 D2]	8.4%
CCCCCCCCCCCCCCCSc1nc(NCCN2CCCC2)nc(SCCCCCC)n1 [S6S15 D3]	14.5%
CCCCCCCCCCCCCCCSc1nc(NCCN2CCCCC2)nc(SCCCCCC)n1 [S6S15 D4]	7.9%
CCCCCCCCCCCCCCCSc1nc(NCCN2CCN(C)CC2)nc(SCCCCCC)n1 [S6S15 D5]	13.7%
CCCCCCCCCCCCCCCSc1nc(NCCCN(C)C)nc(SCCCCCC)n1 [S6S15 D6]	36.4%
CCCCCCCCCCCCCCCSc1nc(NCCN(CC)CC)nc(SCCCCCC)n1 [S6S15 D7]	3.3%
CCCCCCCCCCCCCCCSc1nc(NCCCN2CCOCC2)nc(SCCCCCC)n1 [S6S15 D8]	11.5%
CCCCCCCCCCCCCCCSc1nc(NCCCN2CCN(C)CC2)nc(SCCCCCC)n1 [S6S15 D9]	8.3%
CCCCCCCCCCCCCCCSc1nc(NCC2CCN(C)CC2)nc(SCCCCCC)n1 [S6S15 D10]	34.5%
CCCCCCCCCCCCCCCCSc1nc(NCCN(C)C)nc(SCCCCCC)n1 [S6S16 D1]	8.4%
CCCCCCCCCCCCCCCCSc1nc(NCCN2CCOCC2)nc(SCCCCCC)n1 [S6S16 D2]	24.0%
CCCCCCCCCCCCCCCCSc1nc(NCCN2CCCC2)nc(SCCCCCC)n1 [S6S16 D3]	9.8%
CCCCCCCCCCCCCCCCSc1nc(NCCN2CCCCC2)nc(SCCCCCC)n1 [S6S16 D4]	7.9%
CCCCCCCCCCCCCCCCSc1nc(NCCN2CCN(C)CC2)nc(SCCCCCC)n1 [S6S16 D5]	15.2%
CCCCCCCCCCCCCCCCSc1nc(NCCCN(C)C)nc(SCCCCCC)n1 [S6S16 D6]	0.4%
CCCCCCCCCCCCCCCCSc1nc(NCCN(CC)CC)nc(SCCCCCC)n1 [S6S16 D7]	3.7%

From patent US20230123334A1, “AMINO LIPID COMPOUND, PREPARATION METHOD THEREFOR, AND APPLICATION THEREOF” (SHENZHEN SHENXIN BIOTECHNOLOGY CO., LTD., priority 2020, published 2023)
